The assay concerns the target HIV-1 protease (Human immunodeficiency virus, UniProt O90783). Put plainly: Inhibition Assay. The source says: Inhibition assay using HIV protease and Sulfonamide compounds.

HIV-1 protease, sequence (O90783 whole entry): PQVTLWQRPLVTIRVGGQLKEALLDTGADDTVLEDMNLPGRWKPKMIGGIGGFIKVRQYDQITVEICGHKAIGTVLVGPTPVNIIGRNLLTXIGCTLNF

As to `COc1cc(C(=O)N[C@@H](Cc2ccccc2)[C@H](O)CN(C[C@H]2CCCO2)S(=O)(=O)c2cn(C)cn2)ccn1` [CARB-AC97], the affinity, expressed as Ki, was 910 nM.
In the case of `COc1cccc(S(=O)(=O)N(CC2CCCO2)C[C@@H](O)[C@H](Cc2ccccc2)NC(=O)c2ccnc(OC)c2)c1` (stereo partly specified) [CARB-AD08] it was 110 nM; in that of `CNC(=O)CCC(=O)N[C@@H](Cc1ccccc1)[C@H](O)CN(C[C@@H](C)O)S(=O)(=O)c1cccc(OC)c1` [CARB-KB32], 760 nM.
Turning to `CNC(=O)CCC(=O)N[C@@H](Cc1ccccc1)[C@H](O)CN(C[C@@H](C)O)S(=O)(=O)c1ccco1` [CARB-KB49], the Ki (usually the equilibrium dissociation constant of an inhibitor or competing ligand from its target) came out at 540 nM.
In the case of `C[C@@H](O)CN(C[C@@H](O)[C@H](Cc1ccccc1)NC(=O)CC1C=CCC1)S(=O)(=O)c1ccco1` (stereo partly specified) [CARB-KB51] it was 260 nM; in that of `CC(=N[C@H]1c2ccccc2C[C@H]1O)[C@@H](Cc1ccccc1)C[C@H](O)CN1CCN(Cc2cccnc2)C[C@H]1C(=O)NC(C)(C)C` [IDV], 0.18 nM.

The values are drawn from BindingDB's records for doi:10.1111/j.1747-0285.2007.00514.x (University of Maryland, 2007).
